Measurements as given in patent US20060111306A1, “DEHYDROEPHIANDROSTERONE AND UBIQUINONE COMPOSITIONS FOR TREATING ASTHMA AND BRONOCONSTRICTION” (priority 1995, published 2006).

Test system: Intracellular Adenosine in Various Rat Tissues
Assay: In vivo effect on tissue adenosine levels (HPLC of 1,N6-ethenoadenosine)
Set-up: species or system Fischer 344 rats
Conditions: rats
Method: Folinic acid (50 mg/kg) was administered intraperitoneally once daily for fourteen days. […] Hearts were removed from animals and flash frozen in liquid nitrogen with 10 seconds of death. Liver and lungs were removed en bloc and flash frozen with 30 seconds of death. Brain tissue was subsequently dissected.

## Nc1nc(=O)c2c([nH]1)NCC(CNc1ccc(C(=O)N[C@@H](CCC(=O)O)C(=O)O)cc1)N2C=O (mixture of isomers) [Folinic Acid (F.A.), Folinic acid]
Folinic acid alone, all organs studied
  effect on adenosine levels, administered alone (in words): increase in adenosine levels for all organs studied
Folinic acid co-administered with DHEA or methyltestosterone
  effect of co-administration on steroid-mediated adenosine depletion (in words): completely abrogated steroid-mediated adenosine depletion
